# Measured values as given in US8263344B2, “Compounds regulating calreticulin, KDEL receptor and/or Erp-57 cell surface exposure and uses thereof to evaluate the efficiency of a cancer treatment” (Institut Gustave Roussy, priority 2006, dated 2012).
# How the values were obtained:
# CT26 tumour cells = assay: Anti-tumour vaccination with treated (dying) CT26 cells and challenge with live tumour cells; format: in vivo, BALB/c mice; conditions: dying CT26 cells injected into one flank, rechallenge with live tumour cells in opposite flank 8 days later
# CT26 cells = assay: Phagocytosis of tumour cells by dendritic cells (DC); format: cell-based, BALB/c mice; conditions: within a few hours after treatment
# Protocol: BM cells were flushed from the tibias and femurs of BALB/c mice with culture medium composed of RPMI 1640 medium (Invitrogen Life Technologies) supplemented with 10% heat-inactivated FBS (Invitrogen), sodium pyruvate, 50 μM 2-ME (Sigma), 10 mM HEPES (pH 7.4), and penicillin/streptomycin (Invitrogen). After one centrifugation, BM cells were resuspended in Tris-ammonium chloride for 2 min to lyse RBC. After one more centrifugation, BM cells (1×10^6 cells/ml) were cultured in medium supplemented with 100 ng/ml recombinant mouse FLT3 ligand (R&D systems) in 6-well plates (Costar Corning). After 7 days, the non-adherent and loosely adherent cells were harvested with Versene, washed and transferred in 12-well plates (1.5×10^6 cells/plate) for cocultures with tumour cells.
# In 12-well plates, […] adherent CT26 cells were labelled with Celltracker Green (Calbiochem) and then incubated with drugs. In some experiments viable CT26 were coated with 2 μg/10^6 cells of chicken anti-CRT antibody (ABR affinity bioreagents) or an isotype control for 30 min prior to washing and feeding to dendritic cells Cs. Alternatively CT26 cells were coated with 2 μg/10^6 cells of rCRT on ice for 30 min and washed twice prior to addition to dendritic cells. Cells were then harvested, washed three times with medium supplemented with FBS and cocultured with immature DC for 2 hours at a ratio of 1:1 and 1:5. At the end of the incubation, cells were harvested with versene, pooled with non-adherent cells present in the supernatant, washed and stained with CD11c-FITC antibody. Phagocytosis was assessed by FACS analysis of double positive cells. Phagocytic indexes refer to the ratio between values obtained at 4° C. and values obtained at 37° C. of co-incubation between DC and tumour cells.
# CT26 tumours [1] = assay: Single intratumoural injection into established CT26 tumours, immunocompetent mice; format: in vivo, BALB/c mice; conditions: established 14-day-old CT26 tumours
# CT26 tumours [2] = assay: Single intratumoural injection into established CT26 tumours, athymic mice; design: species or system nu/nu Balb/c mice; conditions: mouse, in vivo
# HeLa cells = assay: Surface ERp57 detection (immunofluorescence, flow cytometry); format: cell-based, human; conditions: 2 h; MTX 1 μM, Tau 150 nM
# Protocol: HeLa cells were cultured on cover slips (in RPM1160 medium supplemented with 10% fetal calf serum, L-glutamine and antibiotics), in the absence (control) or in the presence of 1 μM mitoxantrone (MTX, Sigma) for 2 h. For the intracellular stainings, HeLa cells were fixed and permeabilised by means of Cytofix/Cytoperm kit from Becton Dickinson according to the manufacturer's instructions. For the surface stainings, HeLa cells were fixed with paraformadehyde (4% w/v) on ice for 5 min. […] Nuclei were labelled with DAPI mounting medium (Vectashield). Fluorescence microscopy was analyzed with a Leica IRE2 equipped with a DC300F camera. Size bars represent 10 μm.
# HeLa cells were treated with or without mitoxantrone (MTX, 1 μM) or tautomycin (Tau, 150 nM, Sigma) for 2 h. Cells were washed twice with PBS and fixed in PFA (4% w/v) for 5 min. HeLa cells were stained with an antibody against Erp57 (pAb from Abcam, ab10827) at 1:200 dilution or isotype control, in staining buffer (PBS, 1% FCS) for 30 min on ice, followed by washing. An anti-rabbit Alexa fluor 488 immunoglobulin conjugate (Molecular Probes-Invitrogen) diluted at 1:500 was added for an additional 30 min on ice before washing and analysed by flow cytometry (FACScan, Becton Dickinson). […] The CellQuest software was used to analyse the mean fluorescence intensity (MFI) and the percentage of ERp57 positive cells.
# FIG. 12: ERp57 exposure depends on the activation of a caspase. • (A) HeLa cells were treated with MTX (1 μM) for 2 h in the presence or absence of 50 μM zVAD.fmk. The MFI of surface Erp57 positive cells was analysed as described in FIG. 9. • (B) HCT116 parental cells stably transfected with either a vector encoding p35 (Stennicke et al., 2002; Date et al., 2003) or with a PCMV vector (Sigma) as control, were treated with MTX (1 μM) for 2 h. The MFI of surface Erp57 positive cells was analysed as described in FIG. 9. • (C) HCT116 cells were pre-incubated in the presence of 50 μM biotinylated VAD.fmk (Calbiochem) for 2 h. […]
# CT26 cytoplasts = assay: CRT exposure on enucleated cells (cytoplasts); format: cell-based, murine
# Protocol: FIG. 5A: CRT exposure after anthracyclin treatment in the absence of a nucleus. Intact cells or enucleated cells (cytoplasts) were treated for 2 hours with mitoxantrone, followed by immunofluorescence detection of CRT exposure. Inserts show the effective removal of Hoechst 33342-stainable nuclei from the cytoplasts.
# Trypsinized CT26 cells were enucleated as described in the publication of Andreau, K. et al. Contagious apoptosis facilitated by the HIV-1 envelope. Fusion-induced cell-to-cell transmission of a lethal signal. J. Cell Sci. 117, 5643-53 (2004). Briefly, cells were treated in 2 ml of complete RPMI medium containing cytochalasin B (10 μg/ml; Sigma) and DNase I (80 U/ml; Sigma). Cell suspension was adjusted to a final concentration of 5×10^6/ml and incubated at 37° C. for 45 minutes before being layered onto a previously prepared discontinuous Ficoll (Pharmacia) density gradient (3 ml of 100%, in 1 ml of 90% and 3 ml of 55% Ficoll Paque layer containing 5 μg/ml cytochalasin B and 40 U/ml DNase I; gradients were prepared in ultracentrifuge tubes and pre-equilibrated at 37° C. in a CO2 incubator overnight). […] Then the cell surface CRT was detected (see materials and methods) and the viability was determined by with propidium iodine staining (2 μg/ml, Sigma) for 5 min followed by cytofluorometric analysis. […] Phagocytosis was assessed by FACS analysis of double positive cells.
# MCA205, B16F10, J558 = assay: CRT exposure on a panel of murine tumour cell lines; format: cell-based
# HeLa, A549, HCT116 = assay: CRT exposure on a panel of human tumour cell lines; format: cell-based
smiles,measurement,setting,value
O=C1c2c(O)ccc(O)c2C(=O)c2c(NCCNCCO)ccc(NCCNCCO)c21 [mitoxantrone],immunogenic apoptosis / immunogenic cell death (protection against tumour growth),CT26 tumour cells,elicited immunogenic cell death
same,phagocytosis of treated tumour cells by DC,CT26 cells,acquired the property to be phagocytosed by DC
same,"therapeutic effect of intratumoural injection, single agent, immunocompetent mice",CT26 tumours [1],permanent regression in some but not all cases
same,"therapeutic effect of intratumoural injection, single agent, nu/nu mice",CT26 tumours [2],no cure
same,surface exposure of ERp57,HeLa cells,appear on the surface
same,time to CRT exposure in enucleated cells (cytoplasts),CT26 cytoplasts,≤ 1 h
same,"CRT exposure, murine tumour cell lines","MCA205, B16F10, J558",induced CRT exposure
same,"CRT exposure, human tumour cell lines","HeLa, A549, HCT116",induced CRT exposure
